One data set has as its target Cytochrome P450 3A4 (Homo sapiens, UniProt P08684). The data set can be described thus: Inhibition of human CYP3A4 expressed in baculosomes at 1 uM using BOMCC as substrate preincubated for 20 mins followed by substrate and NADP+ addition and measured after 30 mins by fluorescence assay. It is filed as ADME. The following applies: recombinant enzyme, 0.5 h.
Data set [1] relates to HepaRG. Put plainly: Hepatotoxicity in human HepaRG cells assessed as GSH depletion at 1000 uM after 12 hrs by ThiolTracker Violet dye-based fluorescence assay. It is filed as toxicity, cell-based.
The subject of data set [2] is HepaRG. Put plainly: Hepatotoxicity in human HepaRG cells assessed as necrotic cell death at 1000 uM measured over 12 hrs by LDH assay. In kind it is toxicity, cell-based.
Data set [3] relates to HepaRG. The data set can be described thus: Hepatotoxicity in human HepaRG cells assessed as GSH depletion at 500 uM measured over 12 hrs by ThiolTracker Violet dye-based fluorescence assay. It is filed as toxicity, cell-based.
For data set [4], the system named is HepaRG. Put plainly: Hepatotoxicity in human HepaRG cells assessed as necrotic cell death at 500 uM measured over 12 hrs by LDH assay. In kind it is toxicity, cell-based.
Data set [5] relates to HepaRG. Put plainly: Hepatotoxicity in human HepaRG cells assessed as GSH depletion at 500 uM after 3 to 12 hrs by ThiolTracker Violet dye-based fluorescence assay. In kind it is toxicity, cell-based.
The next data set addresses Cytochrome P450 2E1 (Homo sapiens, UniProt P05181). Put plainly: Inhibition of human CYP2E1 expressed in baculosomes at 1 uM using EOMCC as substrate preincubated for 20 mins followed by substrate and NADP+ addition and measured after 30 mins by fluorescence assay. It is filed as ADME. The following applies: recombinant enzyme, 0.5 h.
For a further data set, the system named is Mus musculus. The data set can be described thus: Antipyretic activity in LPS-induced CD1 mouse fever model assessed as effect on rectal temperature at 50 ug/kg, po administered as single dose and measured every 2 hrs up to 24 hrs. In kind it is functional, organism-based.
In a further data set the target is Cytochrome P450 2D6 (Homo sapiens, UniProt P10635). The data set can be described thus: Inhibition of human CYP2D6 expressed in baculosomes at 1 uM using MOBFC as substrate preincubated for 20 mins followed by substrate and NADP+ addition and measured after 30 mins by fluorescence assay. Particulars: recombinant enzyme, 0.5 h. It is filed as ADME.

Activity calls are given as the source filed them. The calls are words filed in the database; no cut-off is given here.

Sequence of Cytochrome P450 3A4 (P08684 whole entry): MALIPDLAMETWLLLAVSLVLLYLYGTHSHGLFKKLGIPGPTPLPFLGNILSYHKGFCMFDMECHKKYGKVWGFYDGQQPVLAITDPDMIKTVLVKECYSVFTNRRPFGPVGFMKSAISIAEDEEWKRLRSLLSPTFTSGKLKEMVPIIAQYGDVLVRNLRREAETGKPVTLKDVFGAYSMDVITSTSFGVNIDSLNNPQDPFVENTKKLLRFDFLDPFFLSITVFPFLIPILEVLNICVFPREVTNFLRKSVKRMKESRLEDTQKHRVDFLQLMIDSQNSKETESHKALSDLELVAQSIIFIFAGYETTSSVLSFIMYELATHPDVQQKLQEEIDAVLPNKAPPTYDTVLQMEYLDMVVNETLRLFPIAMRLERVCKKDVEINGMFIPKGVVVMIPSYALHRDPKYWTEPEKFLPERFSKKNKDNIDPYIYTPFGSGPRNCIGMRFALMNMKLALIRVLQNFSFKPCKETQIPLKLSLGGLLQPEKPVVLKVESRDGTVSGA
Sequence of Cytochrome P450 2E1 (P05181 whole entry): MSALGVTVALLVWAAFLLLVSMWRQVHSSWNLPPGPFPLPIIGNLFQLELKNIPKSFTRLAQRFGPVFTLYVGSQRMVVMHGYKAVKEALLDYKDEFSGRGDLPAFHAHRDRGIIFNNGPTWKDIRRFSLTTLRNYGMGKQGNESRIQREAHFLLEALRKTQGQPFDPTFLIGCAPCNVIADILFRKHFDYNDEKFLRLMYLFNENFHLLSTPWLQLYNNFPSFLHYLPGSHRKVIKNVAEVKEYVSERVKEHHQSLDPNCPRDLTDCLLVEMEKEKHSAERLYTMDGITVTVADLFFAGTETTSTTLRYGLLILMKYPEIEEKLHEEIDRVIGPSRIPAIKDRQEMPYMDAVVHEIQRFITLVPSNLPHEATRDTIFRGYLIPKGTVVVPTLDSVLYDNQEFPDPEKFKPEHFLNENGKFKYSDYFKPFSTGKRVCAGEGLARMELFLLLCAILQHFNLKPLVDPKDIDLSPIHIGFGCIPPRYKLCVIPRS
Sequence of Cytochrome P450 2D6 (P10635 whole entry): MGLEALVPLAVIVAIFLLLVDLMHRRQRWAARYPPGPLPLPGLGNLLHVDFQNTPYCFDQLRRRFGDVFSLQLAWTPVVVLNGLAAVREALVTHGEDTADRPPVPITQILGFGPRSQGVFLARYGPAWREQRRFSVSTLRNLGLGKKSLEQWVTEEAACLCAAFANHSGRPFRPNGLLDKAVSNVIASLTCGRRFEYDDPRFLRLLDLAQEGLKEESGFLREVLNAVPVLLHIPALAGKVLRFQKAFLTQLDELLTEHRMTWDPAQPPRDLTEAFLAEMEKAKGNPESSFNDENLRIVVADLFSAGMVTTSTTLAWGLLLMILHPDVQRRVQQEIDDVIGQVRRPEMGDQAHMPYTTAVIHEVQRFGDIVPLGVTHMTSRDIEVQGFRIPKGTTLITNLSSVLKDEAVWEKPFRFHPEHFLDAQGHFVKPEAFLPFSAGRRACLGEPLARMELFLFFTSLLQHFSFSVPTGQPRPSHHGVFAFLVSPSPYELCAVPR

In the case of `CC(=O)Nc1ccc(O)cc1` [ACETAMINOPHEN], the “inhibition (INH)” value on Cytochrome P450 3A4 and at Cytochrome P450 2E1 was “Active” throughout. Moreover, the Activity entry in the data set on HepaRG [1], in the data set on HepaRG [2], in the data set with HepaRG [3], with HepaRG [4] and in the data set with HepaRG [5] was “Toxic” throughout. Besides, in the data set with Mus musculus, the outcome was Active.
For `O=C(CN1C(=O)c2ccccc2S1(=O)=O)Nc1ccc(O)cc1`, the “inhibition (INH)” value at Cytochrome P450 3A4, at Cytochrome P450 2D6 and at Cytochrome P450 2E1 was “Not Active” in each case. Also, the Activity entry in the data set on HepaRG [1] is “Non-Toxic”; in the data set with HepaRG [2] it was “Toxic”; in the data set on HepaRG [3], “Toxic”; in the data set on HepaRG [4], “Non-Toxic”; in the data set on HepaRG [5], “Toxic”.
As for `O=C(CN1C(=O)c2ccccc2S1(=O)=O)Nc1ccc(OC(=O)CCO[N+](=O)[O-])cc1`, the “inhibition (INH)” value at Cytochrome P450 3A4, at Cytochrome P450 2D6 and at Cytochrome P450 2E1 was “Not Active” each time. Moreover, the Activity result with HepaRG [1], in the data set with HepaRG [2], in the data set on HepaRG [3], in the data set on HepaRG [4] and in the data set on HepaRG [5] was “Non-Toxic” each time. Moreover, the result in the data set on Mus musculus was inactive.
`O=C(CN1C(=O)c2ccccc2S1(=O)=O)Nc1ccc(OC(=O)CCCO[N+](=O)[O-])cc1`: the “inhibition (INH)” value on Cytochrome P450 3A4, at Cytochrome P450 2D6 and at Cytochrome P450 2E1 was “Not Active” each time. The Activity result was “Non-Toxic” in the data set on HepaRG [1], “Non-Toxic” with HepaRG [3], “Toxic” in the data set on HepaRG [4] and “Non-Toxic” in the data set on HepaRG [5]. Also, in the data set on Mus musculus, the outcome was Active.

For the origin of these results see ChEMBL document CHEMBL4257568, “Synthesis, hepatotoxic evaluation and antipyretic activity of nitrate ester analogs of the acetaminophen derivative SCP-1” (Bioorg Med Chem Lett, 2018).
